Data taken from patent US10562844B2, “HYPDH inhibitors and methods of use for the treatment of kidney stones” (Wake Forest University Health Sciences, priority 2015, dated 2020).

biological target: T1, human HYPDH (Homo sapiens (Human), UniProt Q9UF12); assay: Anaerobic titration of the FAD+ spectrum of recombinant HYPDH; format: binding; details: not given
Text: (§1) Despite the identification of the Hyp pathway in rat and bovine kidneys and livers over 50 years ago, very little is known about human HYPDH (also known as PRODH2 and hydroxyproline oxidase, HPOX, in the literature) (Miyata et al., Proc Natl Acad Sci USA 111, 14406-14411, 2014; Efron et al., New Engl J Med 272, 1299-1309; Pelkonen et al., New Engl J Med 283, 451-456, 1970). In an effort to biochemically and structurally characterize human HYPDH, we have evaluated numerous expression constructs (>15) in Escherichia coli with N- and C-terminal truncations. […] Only the constructs containing the residues 147-515 and 156-515 were >96% loaded with FAD+ and active.

T1 sequence (Q9UF12 71-439 limits assumed): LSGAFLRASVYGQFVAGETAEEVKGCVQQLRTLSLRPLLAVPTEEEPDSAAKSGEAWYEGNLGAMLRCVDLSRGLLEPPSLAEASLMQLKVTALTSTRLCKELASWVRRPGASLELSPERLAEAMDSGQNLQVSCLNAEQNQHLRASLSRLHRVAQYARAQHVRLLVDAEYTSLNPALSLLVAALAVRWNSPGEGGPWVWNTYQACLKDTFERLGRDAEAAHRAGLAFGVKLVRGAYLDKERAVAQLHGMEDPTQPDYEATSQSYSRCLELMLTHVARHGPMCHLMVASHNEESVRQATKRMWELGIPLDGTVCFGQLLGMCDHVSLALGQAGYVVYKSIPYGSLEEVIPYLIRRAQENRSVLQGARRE

| Compound | Kd |
| --- | --- |
| O=C(O)C1CC(O)CN1 (stereo not drawn) [Hyp, Hydroxyproline] | 125 µM |

biological target: T1, human HYPDH; assay: HYPDH inhibition activity assay (inhibitor pre-incubated 5 min, reaction started with Hyp); format: biochemical; details: inhibitor pre-incubated with HYPDH for 5 min; reaction started by addition of 600 mM Hyp
Text: as §1
Each inhibitor was pre-incubated with HYPDH for 5 min, and the reaction started by the addition of 600 mM Hyp. A range of concentrations was tested in order to determine the IC50 value. Table 1 lists the potency of the compounds.

| Compound | IC50 |
| --- | --- |
| O=C1CCC(C(=O)O)C1 (stereo not drawn) [Compound 10] | 380 ± 10 µM |
| N[C@H]1CCC(C(=O)O)C1 (stereo partly drawn) [Compound 9] | 630 ± 10 µM |
| O=C(O)C1CC[C@@H](O)C1 (stereo partly drawn) [Compound 6] | > 10000 µM |
| O=C(O)C1CCCO1 (stereo not drawn) [Compound 2] | 1500 ± 100 µM |
| O=C(O)C1CC[C@H](O)C1 (stereo partly drawn) [Compound 7] | 600 ± 10 µM |
| O=C(O)C[C@H]1CC[C@H](O)C1 [Compound 8] | 480 ± 10 µM |
| O=C(O)C1CCC(O)C1 (stereo not drawn) [Compound 5] | 2100 ± 100 µM |
| O=C1CC[C@@H](C(=O)O)C1 [Compound 11] | 370 ± 10 µM |
